Assay results taken from ChEMBL document CHEMBL3286093 (J Med Chem, 2014).
Values after ≈ are worked out from the molar mass of the structure shown. Active and inactive are the calls of the source. No cut-off for these calls is given here.

How the values were obtained:
[1] = (§1) Cytotoxicity against human HepG2 cells after 48 hrs by Celltiter-Glo assay; assay type: cell-based; details: HepG2 cells, read-out: TC50
[2] = system: Trypanosoma brucei brucei; experiment: microbe, parasite or virus in culture; details: Lister 427, 70 h
Description: Antitrypanosomal activity against bloodstream Trypanosoma brucei brucei Lister 427 after 70 hrs by resazurin assay

in vitro = details: human, HepG2 cells
Description: Selectivity ratio TC50 for human HepG2 cells to EC50 for Trypanosoma brucei brucei Lister 427

[3] = system: Trypanosoma brucei brucei; experiment: Effect on phosphotidyl inositol level in Trypanosoma brucei brucei Lister 427 at 200 nM after 12 hrs by ES-MS analysis; assay type: functional, organism-based
[4] = Solubility of compound in phosphate buffer at pH 7.4 after 1 hr; assay type: physicochemical
[5] = Lipophilicity, log D of the compound at pH 7.4 by HPLC analysis; assay type: physicochemical; details: buffer
[6] = system: Trypanosoma brucei brucei; experiment: Antitrypanosomal activity against bloodstream Trypanosoma brucei brucei Lister 427 assessed as decrease in number of cell at G1 phase after 18 hrs by PI staining based flow cytometer; assay type: functional, organism-based
[7] = system: Trypanosoma brucei brucei; experiment: Effect on sphingomylein level in Trypanosoma brucei brucei Lister 427 at 200 nM after 12 hrs by ES-MS analysis; assay type: functional, organism-based
[8] = Apparent permeability across artificial membrane after 3 hrs by HPLC analysis; assay type: physicochemical
[9] = molecular target: Phosphatidylinositol 4,5-bisphosphate 3-kinase catalytic subunit beta isoform (Homo sapiens, UniProt P42338); experiment: Inhibition of human PI3K-beta assessed as inhibition of […] after 1 hr by TR-FRET analysis
[10] = molecular target: Phosphatidylinositol 4,5-bisphosphate 3-kinase catalytic subunit gamma isoform (Homo sapiens, UniProt P48736); experiment: Inhibition of human PI3K-gamma assessed as inhibition of […] after 1 hr by TR-FRET analysis
[11] = molecular target: Serine/threonine-protein kinase mTOR (Homo sapiens, UniProt P42345); experiment: Inhibition of human recombinant mTOR assessed as inhibition of 4EBP1 phosphorylation after 30 mins by TR-FRET analysis
[12] = system: Trypanosoma brucei brucei; experiment: Inhibition of receptor-mediated endocytosis in Trypanosoma brucei brucei Lister 427 assessed as decrease in transferrin uptake at 2 X EC50 after 18 hrs; assay type: functional, organism-based
[13] = molecular target: T1, Phosphatidylinositol 4,5-bisphosphate 3-kinase catalytic subunit delta isoform (Homo sapiens, UniProt O00329); experiment: Inhibition of human PI3K-delta assessed as inhibition of […] after 1 hr by TR-FRET analysis
T1 sequence (O00329 whole entry): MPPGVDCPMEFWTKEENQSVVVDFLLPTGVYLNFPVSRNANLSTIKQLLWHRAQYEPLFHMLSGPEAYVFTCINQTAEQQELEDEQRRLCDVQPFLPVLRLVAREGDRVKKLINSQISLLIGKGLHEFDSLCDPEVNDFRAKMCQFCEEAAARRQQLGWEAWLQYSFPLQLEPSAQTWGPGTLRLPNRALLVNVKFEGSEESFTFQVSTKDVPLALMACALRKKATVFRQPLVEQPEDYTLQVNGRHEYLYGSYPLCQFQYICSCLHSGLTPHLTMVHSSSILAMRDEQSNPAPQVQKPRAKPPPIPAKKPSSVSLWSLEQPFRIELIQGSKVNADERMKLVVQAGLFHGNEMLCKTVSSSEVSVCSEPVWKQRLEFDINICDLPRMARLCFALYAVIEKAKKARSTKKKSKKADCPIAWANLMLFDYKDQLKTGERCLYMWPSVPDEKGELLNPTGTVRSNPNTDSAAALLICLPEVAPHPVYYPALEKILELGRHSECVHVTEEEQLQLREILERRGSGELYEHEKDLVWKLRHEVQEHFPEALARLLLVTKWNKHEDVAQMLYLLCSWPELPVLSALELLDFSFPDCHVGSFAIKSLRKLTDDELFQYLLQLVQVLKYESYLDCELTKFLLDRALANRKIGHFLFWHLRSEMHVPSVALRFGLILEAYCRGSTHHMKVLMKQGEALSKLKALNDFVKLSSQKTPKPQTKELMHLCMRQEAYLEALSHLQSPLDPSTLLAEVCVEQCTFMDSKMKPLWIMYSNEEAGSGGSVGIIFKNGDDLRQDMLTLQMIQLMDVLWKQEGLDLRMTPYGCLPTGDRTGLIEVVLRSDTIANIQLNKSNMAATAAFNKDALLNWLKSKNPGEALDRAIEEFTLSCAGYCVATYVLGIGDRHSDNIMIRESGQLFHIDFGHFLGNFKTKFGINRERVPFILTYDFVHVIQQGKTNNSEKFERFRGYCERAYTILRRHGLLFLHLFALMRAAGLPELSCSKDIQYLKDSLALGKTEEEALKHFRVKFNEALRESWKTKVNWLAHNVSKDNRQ

[14] = system: Trypanosoma brucei brucei; experiment: Decrease in phosphotidyl inositol phosphate level in Trypanosoma brucei brucei Lister 427 at 200 nM after 12 hrs by ES-MS analysis; assay type: functional, organism-based
[15] = molecular target: Phosphatidylinositol 4,5-bisphosphate 3-kinase catalytic subunit alpha isoform (Homo sapiens, UniProt P42336); experiment: Inhibition of human PI3K-alpha assessed as inhibition of […] after 1 hr by TR-FRET analysis
[16] = system: Trypanosoma brucei brucei; experiment: Effect on phosphatidylcholine level in Trypanosoma brucei brucei Lister 427 at 200 nM after 12 hrs by ES-MS analysis; assay type: functional, organism-based
HepG2 = experiment: as §1; assay type: cell-based; details: hepg2, 48 h

Phosphatidylinositol 4,5-bisphosphate 3-kinase catalytic subunit beta isoform, sequence (P42338 whole entry, canonical isoform): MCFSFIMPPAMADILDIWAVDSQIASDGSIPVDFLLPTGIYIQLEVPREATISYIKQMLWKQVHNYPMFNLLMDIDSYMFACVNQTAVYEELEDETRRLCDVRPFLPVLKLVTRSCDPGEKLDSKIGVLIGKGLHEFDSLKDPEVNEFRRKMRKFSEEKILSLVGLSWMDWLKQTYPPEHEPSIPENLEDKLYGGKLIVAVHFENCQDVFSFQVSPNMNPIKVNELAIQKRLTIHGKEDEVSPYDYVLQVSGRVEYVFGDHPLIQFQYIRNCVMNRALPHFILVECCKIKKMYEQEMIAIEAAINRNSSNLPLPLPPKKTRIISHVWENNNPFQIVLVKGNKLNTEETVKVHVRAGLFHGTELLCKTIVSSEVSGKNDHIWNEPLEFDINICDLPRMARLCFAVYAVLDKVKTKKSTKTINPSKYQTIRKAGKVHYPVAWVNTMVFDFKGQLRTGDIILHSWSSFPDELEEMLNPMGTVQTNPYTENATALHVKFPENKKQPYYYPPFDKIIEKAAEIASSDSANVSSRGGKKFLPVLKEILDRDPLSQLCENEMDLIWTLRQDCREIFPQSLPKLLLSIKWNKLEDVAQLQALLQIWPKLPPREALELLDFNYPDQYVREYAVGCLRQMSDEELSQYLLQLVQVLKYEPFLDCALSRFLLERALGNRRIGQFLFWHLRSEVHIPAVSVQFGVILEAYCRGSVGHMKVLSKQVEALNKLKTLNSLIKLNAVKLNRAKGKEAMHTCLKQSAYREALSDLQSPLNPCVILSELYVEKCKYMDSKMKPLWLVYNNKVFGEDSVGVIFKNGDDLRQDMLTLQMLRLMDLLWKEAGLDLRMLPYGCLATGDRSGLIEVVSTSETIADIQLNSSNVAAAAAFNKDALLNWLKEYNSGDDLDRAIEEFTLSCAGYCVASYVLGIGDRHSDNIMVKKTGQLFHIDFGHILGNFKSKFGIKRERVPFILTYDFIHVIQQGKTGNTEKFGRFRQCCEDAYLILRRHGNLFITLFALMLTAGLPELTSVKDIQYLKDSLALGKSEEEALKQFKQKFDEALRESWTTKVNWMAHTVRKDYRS
Phosphatidylinositol 4,5-bisphosphate 3-kinase catalytic subunit alpha isoform, sequence (P42336 whole entry, canonical isoform): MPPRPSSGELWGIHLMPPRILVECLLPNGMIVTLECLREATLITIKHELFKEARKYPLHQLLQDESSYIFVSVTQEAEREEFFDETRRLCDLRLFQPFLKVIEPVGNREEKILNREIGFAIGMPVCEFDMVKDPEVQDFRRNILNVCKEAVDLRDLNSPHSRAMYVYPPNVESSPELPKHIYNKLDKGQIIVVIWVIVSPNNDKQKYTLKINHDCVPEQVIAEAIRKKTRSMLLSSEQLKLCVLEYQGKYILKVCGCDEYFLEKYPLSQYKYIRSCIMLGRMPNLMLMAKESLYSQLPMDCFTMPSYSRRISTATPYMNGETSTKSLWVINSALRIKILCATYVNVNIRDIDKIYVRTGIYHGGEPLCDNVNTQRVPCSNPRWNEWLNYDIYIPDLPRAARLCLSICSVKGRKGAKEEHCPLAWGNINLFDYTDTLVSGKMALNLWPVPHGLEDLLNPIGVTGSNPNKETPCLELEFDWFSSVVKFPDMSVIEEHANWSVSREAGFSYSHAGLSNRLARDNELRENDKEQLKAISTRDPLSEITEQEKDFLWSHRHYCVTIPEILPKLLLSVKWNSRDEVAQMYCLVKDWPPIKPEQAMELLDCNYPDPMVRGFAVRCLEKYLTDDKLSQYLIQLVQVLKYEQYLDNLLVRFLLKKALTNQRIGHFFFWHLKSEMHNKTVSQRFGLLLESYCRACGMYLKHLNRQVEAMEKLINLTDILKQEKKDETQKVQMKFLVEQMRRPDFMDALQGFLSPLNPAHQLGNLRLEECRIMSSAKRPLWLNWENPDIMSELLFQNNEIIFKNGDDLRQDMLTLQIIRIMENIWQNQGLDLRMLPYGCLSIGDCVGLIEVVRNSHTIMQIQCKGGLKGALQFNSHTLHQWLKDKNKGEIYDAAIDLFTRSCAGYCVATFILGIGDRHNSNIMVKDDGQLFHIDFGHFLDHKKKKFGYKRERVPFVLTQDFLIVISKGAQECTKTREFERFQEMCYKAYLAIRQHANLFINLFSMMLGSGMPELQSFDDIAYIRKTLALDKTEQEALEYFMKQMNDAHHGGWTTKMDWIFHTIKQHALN
Phosphatidylinositol 4,5-bisphosphate 3-kinase catalytic subunit gamma isoform, sequence (P48736 whole entry, canonical isoform): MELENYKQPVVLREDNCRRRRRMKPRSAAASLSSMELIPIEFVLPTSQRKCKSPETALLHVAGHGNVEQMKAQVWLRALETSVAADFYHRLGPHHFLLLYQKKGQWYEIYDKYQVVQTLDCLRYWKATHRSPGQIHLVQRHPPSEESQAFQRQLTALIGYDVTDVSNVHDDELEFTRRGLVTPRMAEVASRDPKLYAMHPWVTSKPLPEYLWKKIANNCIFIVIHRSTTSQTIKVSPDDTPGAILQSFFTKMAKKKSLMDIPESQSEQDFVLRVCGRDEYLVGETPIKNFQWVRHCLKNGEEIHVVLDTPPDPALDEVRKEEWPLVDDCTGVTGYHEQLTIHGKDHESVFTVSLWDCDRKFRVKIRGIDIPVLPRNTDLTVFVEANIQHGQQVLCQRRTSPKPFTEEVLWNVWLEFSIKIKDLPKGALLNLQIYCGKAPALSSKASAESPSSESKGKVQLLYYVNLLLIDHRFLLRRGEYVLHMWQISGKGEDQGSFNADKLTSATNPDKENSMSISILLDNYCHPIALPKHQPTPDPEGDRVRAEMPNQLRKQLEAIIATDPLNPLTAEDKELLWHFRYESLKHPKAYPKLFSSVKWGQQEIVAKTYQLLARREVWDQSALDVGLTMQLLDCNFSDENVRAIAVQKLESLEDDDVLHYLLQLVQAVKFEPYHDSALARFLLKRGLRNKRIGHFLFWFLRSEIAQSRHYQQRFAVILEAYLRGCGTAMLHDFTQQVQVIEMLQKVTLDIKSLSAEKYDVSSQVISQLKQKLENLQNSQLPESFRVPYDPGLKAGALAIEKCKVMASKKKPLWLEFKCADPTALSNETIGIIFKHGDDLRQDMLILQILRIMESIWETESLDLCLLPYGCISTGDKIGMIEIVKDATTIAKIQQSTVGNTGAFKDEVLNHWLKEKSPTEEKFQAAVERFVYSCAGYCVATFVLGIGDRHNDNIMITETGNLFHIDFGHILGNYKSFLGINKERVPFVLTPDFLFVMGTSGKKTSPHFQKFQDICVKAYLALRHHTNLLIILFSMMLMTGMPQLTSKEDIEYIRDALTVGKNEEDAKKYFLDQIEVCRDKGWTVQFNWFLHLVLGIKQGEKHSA

SMILES	CC50 at 48 h [1] [nM]	EC50 [2] [nM]	selectivity ratio (in vitro)	further results
N#Cc1ccc(-n2c(=O)[nH]c3cnc4ccc(-c5cnc6ccccc6c5)cc4c32)cc1	> 50000	184	> 270	
Cn1c(=O)n(-c2ccc(C(F)(F)F)cc2)c2c3cc(-c4cnc5ccccc5c4)ccc3ncc21	> 25000	103	> 240	
CN1CCN(c2ccc3ncc4c(c3c2)n(-c2ccc(C(C)(C)C#N)cc2)c(=O)n4C)CC1	> 50000			
COc1ccc(-n2c(=O)n(C)c3cnc4ccc(-c5ccncc5)cc4c32)cc1	11200	166	67	Activity [3]: Active; solubility kinetic at 1 h [4]: 22 µM (≈ 8.41 µg/mL); logD [5]: 5.32; inhibition [6]: inactive; Activity [7]: inactive; permeability [8]: 86 ×10⁻⁶ cm/s; IC50 [9]: 7940 nM; IC50 [10]: 316 nM; IC50 [11]: 380 nM; inhibition [12]: Active; IC50 [13]: 2510 nM; inhibition [14]: Active; IC50 [15]: 501 nM; Activity [16]: inactive
CN1CCN(Cc2ccc(-n3c(=O)n(C)c4cnc5ccc(-c6ccncc6)cc5c43)cc2)CC1	> 7600	3350	> 2	
CN(C)c1ccc(-n2c(=O)[nH]c3cnc4ccc(-c5ccncc5)cc4c32)cc1	> 50000	42	> 1100	
Cn1c(=O)n(-c2ccc(C(C)(C)C#N)cc2)c2c3cc(C#Cc4cccnc4)ccc3ncc21	140	8	17.5	
Cn1c(=O)n(-c2ccc(N3CCOCC3)cc2)c2c3cc(-c4ccncc4)ccc3ncc21	> 7600	316	> 24	
Cc1ccc(-n2c(=O)n(C)c3cnc4ccc(-c5ccc(C(=O)O)cc5)cc4c32)cc1	> 50000	9890	> 5	
CN(C)c1ccc(-n2c(=O)n(C)c3cnc4ccc(-c5ccncc5)cc4c32)cc1	2340	82	28	
Cn1c(=O)n(C)c2c3cc(-c4ccncc4)ccc3ncc21	> 20000	3270	> 6	
Cn1cc(-c2ccc3ncc4c(c3c2)n(-c2ccc(C(C)(C)C#N)cc2)c(=O)n4C)cn1		51		Activity [3]: Active; logD [5]: 5.3; inhibition [6]: Active; Activity [7]: inactive; permeability [8]: ND(Insoluble); IC50 [9]: 7940 nM; IC50 [10]: 126 nM; IC50 [11]: 1170 nM; inhibition [12]: inactive; IC50 [13]: 794 nM; inhibition [14]: Active; IC50 [15]: 398 nM; Activity [16]: inactive
Cn1c(=O)n(-c2ccc(C(C)(C)C#N)cc2)c2c3cc(-c4cnc5ccccc5c4)ccc3ncc21 [DACTOLISIB]				Activity [3]: Active; solubility kinetic at 1 h [4]: 19 µM (≈ 8.92 µg/mL); logD [5]: 6.44; inhibition [6]: inactive; Activity [7]: inactive; permeability [8]: ND(Insoluble); TC50 (HepG2): ND(Insoluble); inhibition [12]: Active; inhibition [14]: Active; Activity [16]: inactive
Cc1ccc2ncc3c(c2c1)n(-c1ccc(C(C)(C)C#N)cc1)c(=O)n3C	> 20000	2020	> 10	
Cn1c(=O)n(-c2ccc(C(C)(C)C#N)cc2)c2c3cc(-c4ccc(C(F)(F)F)nc4)ccc3ncc21	> 25000	53	> 470	
Cn1c(=O)n(-c2ccc(C(C)(C)C#N)cc2)c2c3ccccc3ncc21	> 50000	624	> 80	logD [5]: 4.69; permeability [8]: 57 ×10⁻⁶ cm/s; IC50 [9]: > 30000 nM; IC50 [10]: 2000 nM; IC50 [11]: 1620 nM; IC50 [13]: 15800 nM; IC50 [15]: 3980 nM
Cn1c(=O)n(-c2ccc(C(C)(C)C#N)cc2)c2c3cc(N4CCOCC4)ccc3ncc21	> 50000	2040	> 24	

SMILES	CC50 at 48 h [1] [nM]	EC50 [2] [nM]	selectivity ratio (in vitro)	further results
Cn1c(=O)n(-c2ccc(C(C)(C)C#N)cc2)c2c3cc(-c4cccnc4)ccc3ncc21	575	16	36	
N#CCc1ccc(-n2c(=O)[nH]c3cnc4ccc(-c5ccncc5)cc4c32)cc1	> 50000	199	> 250	
Cn1c(=O)n(-c2ccc(C#N)cc2)c2c3cc(-c4cnc5ccccc5c4)ccc3ncc21	> 50000	91	> 540	
CN(C)c1ccc(-n2c(=O)n(C)c3cnc4ccccc4c32)cc1	3000	9330	0.3	
CN(C)c1ccc(-n2c(=O)[nH]c3cnc4ccccc4c32)cc1	19000	6240	3	
Cn1c(=O)n(-c2ccc(C(C)(C)C#N)cc2)c2c3cc(-c4ccncc4)ccc3ncc21	3430	136	25	
Cn1c(=O)n(-c2ccc(C(C)(C)C#N)cc2)c2c3cc(-c4cc5ccccc5s4)ccc3ncc21	> 25000	54	> 460	
Cc1ccc(-n2c(=O)n(C)c3cnc4ccc(-c5ccncc5)cc4c32)cc1	4780	202	24	Activity [3]: Active; solubility kinetic at 1 h [4]: 17 µM (≈ 6.23 µg/mL); logD [5]: 4.95; inhibition [6]: inactive; Activity [7]: inactive; permeability [8]: 47 ×10⁻⁶ cm/s; IC50 [9]: 31600 nM; IC50 [10]: 251 nM; IC50 [11]: 468 nM; inhibition [12]: Active; IC50 [13]: 2510 nM; inhibition [14]: Active; IC50 [15]: 631 nM; Activity [16]: inactive
Cn1c(=O)n(-c2ccc(CC#N)cc2)c2c3cc(-c4ccncc4)ccc3ncc21	> 50000	88	> 560	
Cn1c(=O)n(-c2ccc(C(C)(C)C#N)cc2)c2c3cc(-c4ccccc4)ccc3ncc21	1820	159	11	
CC(=O)Nc1ccc2ncc3c(c2c1)n(-c1ccc(C(C)(C)C#N)cc1)c(=O)n3C	> 50000	9020	> 5	
Cc1ccc2ncc3c(c2c1)n(-c1ccccc1)c(=O)n3C	> 50000	1300	> 39	
Cn1c(=O)n(-c2ccccc2)c2c3ccccc3ncc21	> 50000	18500	> 3	
Cn1c(=O)n(-c2ccc(C(C)(C)C#N)cc2)c2c3cc(N)ccc3ncc21	> 50000	10600	> 4	
Cn1c(=O)n(-c2ccccc2)c2c3cc(-c4cnc5ccccc5c4)ccc3ncc21	> 25000	24	> 1000	
Cn1c(=O)n(-c2ccc(C#N)cc2)c2c3cc(-c4ccncc4)ccc3ncc21		72		TC50 (HepG2): ND(Insoluble)
